According to publication PMC11550483 (2024):
Where two headings read alike, the source gives them in different places. Where a SMILES comes first, the peptide text is derived from it.

How the values were obtained:
SARS2 M^pro = conditions: cited from earlier work
293T cells = conditions: up to the highest tested concentration (100 μM)
SARS2 replication = conditions: read-out: EC50 against SARS2 replication; cited from earlier work
HCoV-NL63 M^pro = HCoV-NL63 M^pro (Human coronavirus NL63, UniProt P0C6X5); format: cell-based; conditions: read-out: EC50 NL63 M^pro inhibition, cellular gain-of-signal
HCoV-NL63 M^pro, sequence (P0C6X5 2940-3242): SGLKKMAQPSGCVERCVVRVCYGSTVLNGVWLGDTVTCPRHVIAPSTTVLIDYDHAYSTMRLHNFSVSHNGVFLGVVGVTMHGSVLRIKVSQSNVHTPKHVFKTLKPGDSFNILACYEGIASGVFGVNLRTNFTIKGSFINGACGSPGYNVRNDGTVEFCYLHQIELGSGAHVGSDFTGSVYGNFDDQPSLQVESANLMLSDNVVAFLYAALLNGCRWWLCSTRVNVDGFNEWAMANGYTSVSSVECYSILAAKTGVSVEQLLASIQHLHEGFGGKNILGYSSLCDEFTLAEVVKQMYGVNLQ

SMILES: CSCCC(C=O)NC(=O)C(CC(C)C)NC(=O)C(CC(C)C)NC(C)=O (stereo not drawn) [MWAC-0001889, CSCCC(NC(=O)C(CC(C)C)NC(=O)C(CC(C)C)NC(=O)C)C=O] (Ac-Leu-Leu-Met-aldehyde; configuration not given here)
- IC50 (SARS2 M^pro; read-out: IC50 SARS2 M^pro in a biochemical assay, ref [29],[32],[39],[58],[59]): 970 nM
- toxicity in 293T cells (293T cells): no toxicity

SMILES: O=C(NCc1cccs1)C1CN(C(=O)c2cccnc2)CCN1c1ccc(Cl)c(Cl)c1 (centres unmarked) [GC-14, reference compound]
- IC50 (SARS2 M^pro; read-out: IC50 in a similar biochemical assay, ref [60]–[61]): 400 nM
- EC50 (SARS2 replication): 1100 nM

SMILES: CC(C)C[C@H](NC(=O)OCc1ccccc1)C(=O)N[C@@H](CC1CCNC1=O)C(O)S(=O)(=O)O (some centres unmarked) [GC376]
- EC50 (HCoV-NL63 M^pro): 770 nM
